A short description of data set [1]: Stability in rat plasma under storage conditions. It counts as physicochemical. The protocol: In addition, the stabilities of cinobufotalin at 20, 200, and 2000 ng/mL in different storage conditions were evaluated, including short term stability (such as 25°C for 4, 8, 12, and 24 h and 4°C for 4, 8, 12, and 24 h), long term stability (-80°C for 10 days) and three freeze-thaw cycles in rat plasma. Stabilities were expressed as the concentrations after different operations to the concentration at time zero. All of the samples were processed as described in Preparation of rat plasma samples section. A 5 μL aliquot was injected to UPLC-QTOF/MS for analyses.

Data set [2] is described as follows: Liver distribution of cinobufotalin in normal and DEN-injured rats. It counts as in vivo. As to conditions: male, Sprague Dawley, rat, iv, 2.5 mg/kg, i.v. 2.5 mg/kg, after the last sampling time point (24 h), read-out: concentration of cinobufotalin in liver tissues. As to the method:
For PK studies, the rats were randomly divided into two experimental groups (10 rats for normal rats group and 20 rats for DEN-injured rats group, considering the animal casualties during the modeling process). HCC rat model was established by intraperitoneal administration of 50 mg/kg DEN two times per week ([Fuchs et al., 2014]), and the control group rats were treated with normal saline in the same way. After 14 weeks of administration, three rats were randomly selected and anesthetized by anesthesia cocktail (Ketamine 50 mg/mL, Xylazine 3.3 mg/mL and Acetopromazine 3.3 mg/mL). Then the liver was taken out and photographed to determine whether the animal model was successfully constructed.
Before PK experiment, a cannula was introduced into the jugular vein of the anesthetized rat and administrated carprofen subcutaneously after the surgery. After observation for 24 h, when the activity and excretion of rats were normal, rats were dosed with cinobufotalin at 2.5 mg/kg through jugular vein cannula. Blood samples (200 μL) were withdrawn at each pointed time (5, 10, 15, 30, 45 min, and 1, 1.5, 2, 4, 6, 8, 12, and 24 h) after dosing, and whole blood was transferred into tubes pre-treated with heparin (1000 U/mL). Then an equal volume of saline was injected into rats through jugular vein cannula immediately. […]

For data set [3], the system named is MDCK II cells. Briefly: Cellular uptake (intracellular accumulation) in MDCK II cells. The note with it: verapamil 100 μM, 2 h. Format: in vitro ADME, canine. The protocol: Madin Darby canine kidney (MDCK II) cells stably transfected with multidrug resistance 1 gene (MDCK-MDR1 cells) were conducted and used in cinobufotalin uptake studies. Wild type MDCK II or MDCK-MDR1 cells were seeded into six-well plates at the destiny of 2 × 10^5 cells/well and maintained at 37°C under 5% CO2 in DMEM with 10% FBS. The well-known P-gp inhibitor, verapamil (100 μM), was used as the positive control to evaluate the effect of P-gp on cinobufotalin uptake ([Bicker et al., 2017]).
The uptake experiment was performed when the cells reached 100% confluency. First, cells were washed three times using 37°C Hanks’ balanced salt solution (HBSS) buffer (pH = 7.2). Then, 2 mL HBSS (37°C, pH = 7.2) buffer containing cinobufotalin (5 and 20 μM) were added and incubated with cells in the absence or presence of potential P-gp inhibitors, verapamil (100 μM). After incubation for 2 h, the incubation medium was removed, and cells were washed three times using ice-cold HBSS buffer. Then 400 μL of ice-cold MeOH:H2O (1:1, v/v) were added into each well, the cells were collected and sonicated for 15 min in ice-cold water. The mixture was centrifuged at 4°C (12,000 g, 10 min), and the supernatant was subjected to UPLC-QTOF/MS for analyses.

In data set [4] the test system is HepG2 cells. As to the kind of experiment: Wound healing assay, HepG2 cells. It counts as cell-based. The note with it: 40, 60 and 80 nM, 24 h. The protocol: Hepatocellular cancer cells (HepG2 and Huh-7) were purchased from the cell bank of the Chinese Academy of Science (Shanghai, China). These cells were cultured in Dulbecco’s modified Eagle’s medium (DMEM) containing 10% fetal bovine serum (FBS), penicillin (100 units/mL) and streptomycin (100 units/mL) in a humidified atmosphere with 5% CO2 at 37 °C.
Wound healing assay was used to investigate the effect of cinobufotalin on the migration of HepG2 and Huh-7 cells. Cells were seeded into 6-well plates at the density of 4 × 10^5 cells/well and maintained until reaching monolayer confluence. The cells were scratched using 20-μL pipette tips and rinsed with PBS buffer for three times. And then the cells were cultured in serum-free medium containing different concentrations of cinobufotalin (40, 60, 80 nM). After treatment with cinobufotalin for different lengths of time (0 and 24 h), the width of wound was measured and the images of cells were acquired using inverted microscope (Leica, Wetzlar, German). The rate of wound healing = [(the wound width of 0 h - 24 h)/0 h wound width] × 100%. All experiments were performed in triplicate.

Data set [5] concerns CYP3A4. Also on record: method as in Han et al., 2016. As to conditions: especially mediated by CYP3A4; ref Han et al., 2016; cited from earlier work.

Where two headings read alike, the source gives them in different places.

For the compound `CC(=O)O[C@H]1[C@H]2O[C@]23[C@@H]2CC[C@]4(O)C[C@@H](O)CC[C@]4(C)[C@H]2CC[C@]3(C)[C@H]1c1ccc(=O)oc1` [Cinobufotalin], the figures for the “Stability in rat plasma, Freezing-thaw 3 cycles” value in data set [1] (20 ng/mL), in data set [1] (200 ng/mL) and in data set [1] (2000 ng/mL) were 99.2 ± 0.8%, 95.6 ± 1.6% and 99.2 ± 0.6%, respectively. The “Stability in rat plasma, -80°C for 10 days” value in data set [1] (200 ng/mL) is reported as 100.9 ± 1.2%; in data set [1] (2000 ng/mL) it was 97.3 ± 5.6%. The concentration at 24 h in data set [2] (DEN-injured rats) was found to be 21 ± 2.7 ng/mL; in data set [2] (normal rats), 39.3 ± 4.9 ng/mL. Also, the “effect of verapamil on the intracellular accumulation of cinobufotalin” value in data set [3] is given as “did not alter”. Further, in data set [4], the “migration of HepG2 cells (wound healing)” value is “significantly attenuated”. The “metabolic pathways in human liver microsomes” value in data set [5] was “undergo hydroxylation and dehydrogenation”.

Values taken from PMC6533572, “Elucidation of the Differences in Cinobufotalin’s Pharmacokinetics Between Normal and Diethylnitrosamine-Injured Rats: The Role of P-Glycoprotein” (Frontiers in Pharmacology, 2019).
